Assay results from patent US20140031283A1, “ANTICANCER FUSION PROTEIN” (ADAMED SP. Z O.O., priority 2011, published 2014).

Legend:
[1] = test system: human colon cancer HCT116; assay: HCT116 colon cancer xenograft in Crl:CD1-Foxn1^nu 1 mice; assay type: in vivo; details: HCT116, Crl:CD1-Foxn1^nu 1 mice
Description: Antitumor activity of protein preparations was tested in a mouse model of human colon cancer HCT116, human colon cancer Colo205, human colon cancer model SW620, human liver cancer model HepG2, and human lung cancer models NCI-H460 and NCI-H460-Luc2.
The HCT116 (in mice Crl:CD1-Foxn1^nu 1), Colo205, NCI-H460, NCI-H460-Luc2 cells were maintained in RPMI 1640 medium (Hyclone, Logan, Utah, USA) mixed in the ratio of 1:1 with Opti-MEM (Invitrogen, Cat.22600-134) supplemented with 10% fetal calf serum and 2 mM glutamine. On the day of mice grafting, the cells were detached from the support by washing the cells with trypsin (Invitrogen), then the cells were centrifuged at 1300 rpm, 4° C., 8 min., suspended in HBSS buffer (Hanks medium), counted and diluted to the concentration of 25×10^6 cells/ml.
Examination of antitumor activity of proteins of the invention was conducted on 7-9 week-old CD-nude (Crl:CD1-Foxn1^nu 1) or 4-6 week-old Crl:SHO-Prkdc^scidHr^hr mice obtained from Charles River Germany. Mice were kept under specific pathogen-free conditions with free access to food and demineralised water (ad libitum). All experiments on animals were carried in accordance with the guidelines: “Interdisciplinary Principles and Guidelines for the Use of Animals in Research. […]

A549 = assay: MTT cytotoxicity test, A549 (human lung cancer); assay type: cell-based; details: continuous incubation over 72 h, test MTT
Source text: MTT assay is a colorimetric assay used to measure proliferation, viability and cytotoxicity of cells. It consists in decomposition of a yellow tetrazolium salt MTT (4,5-dimethyl-2-thiazolyl)-2,5-diphenyltetrazolium bromide) to the water-insoluble purple dye formazan by mitochondrial enzyme succinate-tetrazolium reductase 1. MTT reduction occurs only in living cells. Data analysis consists in determining IC50 concentration of the protein (in ng/ml), at which the 50% reduction in the number of cells occurs in the population treated compared to control cells. Results were analyzed using GraphPad Prism 5.0 software. The test was performed according to the literature descriptions (Cells, J E, (1998). Cell Biology, a Laboratory Handbook, second edition, Academic Press, San Diego; Yang, Y., Koh, L W, Tsai, J H., (2004); Involvement of viral and chemical factors with oral cancer in Taiwan, Jpn J Clin Oncol, 34 (4), 176-183). Cell culture medium was diluted to a defined density (10^4-10^5 cells per 100 μl). Then 100 μl of appropriately diluted cell suspension was applied to a 96-well plate in triplicates. Thus prepared cells were incubated for 24 h at 37° C. in 5% or 10% CO2, depending on the medium used, and then to the cells (in 100 μl of medium) further 100 μl of the medium containing various concentrations of tested proteins were added. In the case of combination hTRAIL114-281 and p21WAF effector protein, 100 μl of the medium containing mixture of hTRAIL114-281 and p21WAF effector protein in molar ratio 1:1 was added. After incubation of the cells with tested proteins over the period of next 72 hours, which is equivalent to 3-4 times of cell division, the medium with the test protein was added with […] of MTT working solution [5 mg/ml], and incubation was continued for 3 h at 37° C. in 5% CO2. Then the medium with MTT solution was removed, and formazan crystals were dissolved by adding 100 μl of DMSO. After stirring, the absorbance was measured at 570 nm (reference filter 690 nm). […]

HCT-116 = details: continuous incubation over 72 h, test MTT
Description: Data analysis consists in determining IC50 concentration of the protein (in ng/ml), at which the 50% reduction in the number of cells occurs in the population treated compared to control cells. Results were analyzed using GraphPad Prism 5.0 software. […] Cell culture medium was diluted to a defined density (10^4-10^5 cells per 100 μl). Then 100 μl of appropriately diluted cell suspension was applied to a 96-well plate in triplicates. Thus prepared cells were incubated for 24 h at 37° C. in 5% or 10% CO2, depending on the medium used, and then to the cells (in 100 μl of medium) further 100 μl of the medium containing various concentrations of tested proteins were added. […] After incubation of the cells with tested proteins over the period of next 72 hours, which is equivalent to 3-4 times of cell division, the medium with the test protein was added with 20 ml of MTT working solution [5 mg/ml], and incubation was continued for 3 h at 37° C. in 5% CO2. Then the medium with MTT solution was removed, and formazan crystals were dissolved by adding 100 μl of DMSO. After stirring, the absorbance was measured at 570 nm (reference filter 690 nm).
Each experiment represents the average value of at least two independent experiments performed in triplicates.

Substance: rhTRAIL114-281: recombinant human soluble TRAIL, amino acids 114-281 of hTRAIL, used as the comparative reference
- tumor growth inhibition (TGI) relative to the control ([1]; 10 mg/kg i.v. daily for ten days, 31th day): 21.8%
- tumor growth inhibition (TGI) relative to the control ([1]; 10 mg/kg i.v., 10 daily applications with a two-day break after the first 5, 27th day): 44%
- A549 IC50 (A549): >10 µg/mL
- HCT116 IC50 (HCT-116): 0.02557 µg/mL
